In US20070010525A1, “Method and compositions for modulating neuropeptide hormone secretion” (priority 2005, published 2007):

Tests used:
[1] = system: BK channels in pituitary nerve terminals; assay: Patch clamp recordings of potassium current in posterior pituitary slices after photolysis of caged cGMP; assay type: cell-based, rats; details: slices bathed in 15 μM sildenafil, control recovered in about 3 minutes
Experimental: Posterior pituitary. Experiments were performed on posterior pituitary glands removed from rats of either sex, ranging in age from 1-3 months. Animals were rendered unconscious by inhalation of CO2, and killed by decapitation. Glands were removed rapidly to maintain tissue health, and transferred to physiological saline (in mM: 125 NaCl, 4 KCl, 26 NaHCO3, 1.25 NaH2PO4, 2 CaCl2, 1 MgCl2, 10 glucose) bubbled with 95% O2/5% CO2 (Jackson et al., 1991, Action potential broadening and frequency-dependent facilitation of calcium signals in pituitary nerve terminals. Proc. Roy. Soc. Lond. 88:380-384). For oxytocin release experiments the pituitary was kept intact. For electrophysiological recordings, slices of posterior pituitary were cut at 70 μm with a vibratome and maintained in physiological saline. Electrophysiology. Recordings of K^+ current were made with patch pipettes filled with (in mM) 130 KCl, 10 NaCl, 10 HEPES, 4 Mg-ATP, 0.3 GTP, 5 EGTA, pH 7.3. Individual nerve terminals were identified in an upright DIC microscope, Jackson, 1993. Passive current flow and morphology in the terminal arborizations of the posterior pituitary. J. Neurophysiol. 69, 692-702, and voltage or current clamped with an EPC-7 patch clamp amplifier. […] The component of potassium current corresponding to BK channels (seen at the end of a 200 msec voltage step from −80 to 50 mV) was determined for each pulse. […]

[2] = system: posterior pituitary glands; assay: Oxytocin release from whole posterior pituitary glands (enzyme immunoassay); assay type: cell-based, rats
Experimental: Posterior pituitary. Experiments were performed on posterior pituitary glands removed from rats of either sex, ranging in age from 1-3 months. Animals were rendered unconscious by inhalation of CO2, and killed by decapitation. Glands were removed rapidly to maintain tissue health, and transferred to physiological saline (in mM: 125 NaCl, 4 KCl, 26 NaHCO3, 1.25 NaH2PO4, 2 CaCl2, 1 MgCl2, 10 glucose) bubbled with 95% O2/5% CO2 (Jackson et al., 1991, Action potential broadening and frequency-dependent facilitation of calcium signals in pituitary nerve terminals. Proc. Roy. Soc. Lond. 88:380-384). For oxytocin release experiments the pituitary was kept intact. For electrophysiological recordings, slices of posterior pituitary were cut at 70 μm with a vibratome and maintained in physiological saline. Oxytocin release. Whole pituitary glands with attached axon bundle were placed in a chamber perfused with oxygenated physiological saline. Perfusion was stopped at ˜15 min intervals during measurements, when the physiological saline was substituted with a solution of a similar composition, but with the addition of 20 mM HEPES and NaHCO3, and NaH2PO4 reduced to zero. The pH was adjusted to 7.3 with NaOH. Basal release was measured after a 5 min waiting period (immediately before the stimulus application). The axon bundle was stimulated via a large-diameter, monopolar extracellular glass electrode. Oxytocin release was evoked by a series of 5 trains of 0.2 msec, 0.2 mA current pulses with a frequency of 25 Hz and a duration of 10 seconds. Trains were applied at 1 min intervals. Evoked release was measured 5 minutes after the end of stimulation by gently mixing the bath with a micropipette and collecting 10-20 μL samples in the vicinity of the tissue. Three separate samples were collected for each measurement (including basal release control). Perfusion of the oxygenated physiological saline was restored immediately after sample collection and sildenafil was added to the bath solution for 30-60 min. Recordings of the sildenafil effect on basal and evoked release were then repeated as described above. To control for possible rundown of release, measurements of sildenafil effects were in some cases substituted by the second control measurements. Oxytocin was measured in collected fluid using the Correlate-EIA enzyme immunoassay kit (Assay Designs, Ann Arbor, Mich.). Oxytocin concentration was inversely proportional to the yellow color generated by the immunoassay and was scanned into the computer using an automated micro plate reader at 405 nm. Actual oxytocin concentration was determined with a standard curve measured for each sample plate.

pituitary nerve terminal = details: after 5 or 10 seconds of high frequency stimulation; control ~30%; cited from earlier work
[3] = 7-NI 100 μM with sildenafil 10 μM

For `CCCc1nn(C)c2c(=O)[nH]c(-c3cc(S(=O)(=O)N4CCN(C)CC4)ccc3OCC)nc12` [Sildenafil, 5-[2-ethoxy-5-(4-methyl-1-piperazinylsulphonyl)phenyl]-1-methyl-3-n-propyl-1,6-dihydro-7H-pyrazolo [4,3-d]pyrimidin-7-one], the “recovery of the cGMP-induced increase in potassium current” value [1] was “greatly slowing the recovery”, the “recovery of the cGMP-induced increase in potassium current” value ([1]; listed as sildenafil) was “failed to recover” and the basal oxytocin release ([2]; sildenafil 10 μM, 30-60 min in bath) was “insignificant increase”. The evoked oxytocin release ([2]; sildenafil 10 μM, electrical stimulation of axon bundle) was “large and significant increase”.
For `Nc1nc2c(ncn2[C@@H]2O[C@@H]3COP(=O)(O)O[C@H]3[C@H]2O)c(=O)[nH]1` [cGMP], the “success rate of stimulus pulses evoking action potentials” value (pituitary nerve terminal) is listed as roughly 60%.
In the case of `O=[N+]([O-])c1cccc2cn[nH]c12` [7-NI, 7-nitorindazol], the “effect on sildenafil-induced increase in basal oxytocin release” value [2, 3] was “blocked” and the “effect on sildenafil-induced increase in evoked oxytocin release” value [2, 3] was “blocked”.
